Measured values taken from patent US8394399B2, “Drug-enhanced adhesion prevention” (Ethicon, Inc., priority 2004, dated 2013).
“And” between values parts separate entries of the source, which are not always exact repeats. Identical values can stand only once.

Columns and labels:
[1] = tested on: adhesion formation at the sidewall injury; assay: Rabbit peritoneal sidewall adhesion model, 1 week dosing via Alzet miniosmotic pump; format: in vivo; parameters: key to Adhesion Tenacity: 0: No adhesions; 1: mild, easily dissectible adhesions; 2: moderate adhesions; non-dissectible, does not tear organ; 3: dense adhesions; non-dissectible, tears when removed; conditions: for Adhesion Area Percentage / Adhesion Tenacity: 10 microliter/hr over 7 days, sacrifice after 21 days, individual animals 1-7; for Adhesion Tenacity: score 0-3; for mean adhesion score: group mean of 7 rabbits, placebo control 100±0
Protocol: In the peritoneal sidewall model, rabbits were pre-anesthetized with 1.2 mg/kg acetylpromazine and anesthetized with a mixture of 55 mg/kg ketamine hydrochloride and 5 mg/kg xylazine intramuscularly. Following preparation for sterile surgery, a midline laparotomy was performed. A 3 cm×5 cm area of peritoneum and transversus abdominis muscle was removed on the right lateral abdominal wall. The cecum was exteriorized and digital pressure was exerted to create subserosal hemorrhages (trauma and loss of blood flow) over all cecal surfaces. The cecum was then returned to its normal anatomic position. Tranilast contained in a delivery vehicle as described below was placed in an Alzet® miniosmotic pump (Alza Corporation, Palo Alto, Calif.) to allow continuous release of the molecule through the postsurgical interval. The Alzet miniosmotic pump was placed in the subcutaneous space and a delivery tube connected the pump with the site of injury at the sidewall. Only the delivery vehicle was placed in the pump of control rabbits. The abdominal wall and skin were closed in a standardized manner.
After 21 days, the rabbits were sacrificed and the percentage of the area of the sidewall injury that was involved in adhesions was determined. In addition, the tenacity of the adhesion formed was scored using a system as follows:
With the sidewall model, an initial score to represent the overall extent of adhesions is given (0 to 3).
The percentage of a surface of the sidewall involved in adhesions to various organs are given in the tables below to quantify the overall adhesion score. A reduction in the area and the tenacity of the adhesions would be considered beneficial and efficacious.
(§1) The efficacy of Pemirolast in inhibiting adhesion formation was evaluated using a single pump, filled with one of three dosage levels of mg of Pemirolast per ml of delivery vehicle (0.625 mg/ml, 6.25 mg/ml or 62.5 mg/ml), or placebo control (saline). The drug was placed in an Alzet miniosmotic pump and delivered over 7 days at a rate of 10 microliter/hr. The animals were sacrificed after 21 days.

[2] = Necropsy observations in the sidewall adhesion study; format: in vivo, rabbit
Protocol: as §1
However, there was inflammation observed at the abdominal cavity in 1 of 7 and 3 of 7 rabbits at the medium and high dose of drug, respectively.

## Cc1cccn2c(=O)c(-c3nnn[nH]3)cnc12 [Pemirolast, 9-methyl-3-(1H-tetrazol-5-yl)-4H-pyrido [1,2-α]pyrimidin-4-one potassium]
[1]; 0.625 mg/ml in pump
  Adhesion Area Percentage: 80% (2×) and 100% (4×) and 70%
  Adhesion Tenacity: 1 (5×) and 2 (2×)
[1]; 0.625 mg/ml
  mean adhesion score: 90.0±4.9
[1]; 6.25 mg/ml in pump
  Adhesion Area Percentage: 50% and 80% (2×) and 100% (2×) and 70% and 60%
  Adhesion Tenacity: 1 (6×) and 2
[1]; 6.25 mg/ml, p=0.007
  mean adhesion score: 77.1±7.1
[1]; 62.5 mg/ml in pump
  Adhesion Area Percentage: 70% (2×) and 50% (2×) and 80% (2×) and 100%
  Adhesion Tenacity: 2 (3×) and 1 (4×)
[1]; 62.5 mg/ml, p=0.001
  mean adhesion score: 71.4±6.7
[1]; all dose groups, analysis of variance on the ranks
  tenacity of the adhesions formed, relative to control: significant reductions
[1]; sidewall model, reductions in the groups that received the higher doses
  area of adhesion formation, relative to control: reduced the area of adhesion formation
[2]; at necropsy, all doses
  clinical signs associated with administration: no clinical signs
[2]; high dose (62.5 mg/ml)
  inflammation observed at the abdominal cavity (rabbits affected): 3 of 7
[2]; medium dose (6.25 mg/ml)
  inflammation observed at the abdominal cavity (rabbits affected): 1 of 7
